From patent US20180072739A1, “CO-CRYSTALS OF A BRUTON'S TYROSINE KINASE INHIBITOR” (Pharmacyclic LLC, priority 2015, published 2018)
Values after ≈ are worked out from the molar mass of the structure shown.

Test: physchem
Details: water, 25 °C, thermodynamic from solid
Method: The suspension was equilibrated at 25° C. for 2 hours with aliquots sampled at 30, 60 and 120 min; the pH was measured at each time point. The suspension was then filtered through a glass fibre C filter. The filtrate was then diluted by an appropriate factor. Quantitation was by HPLC with reference to a standard solution of approximately 0.2 mg/mL in CH3CN:water. Different volumes of the standard, diluted and undiluted sample solutions were injected. […]

C=CC(=O)N1CCC[C@@H](n2nc(-c3ccc(Oc4ccccc4)cc3)c3c(N)ncnc32)C1 [Compound 1, 1-((R)-3-(4-amino-3-(4-phenoxyphenyl)-1H-pyrazolo[3,4-d]pyrimidin-1-yl)piperidin-1-yl)prop-2-en-1-one]
solubility at 30 min: ~1640 µg/mL (≈ 3.72 mM) | solubility at 60 min: ~1640 µg/mL (≈ 3.72 mM) | solubility at 120 min: ~1690 µg/mL (≈ 3.84 mM)
